Data taken from patent US10842152B2, “Isothiazolo-based bicycles, processes for their preparation and their use as herbicides and/or plant growth regulators” (Bayer CropScience Aktiengesellschaft, priority 2017, dated 2020).

Assays:
MATIN [1] = experiment: Herbicidal effect post-emergence; format: in vivo, Matricaria inodora; conditions: 320 g/ha, visual grading after ca. 3 weeks (Table 7)
From the text: Seeds of mono- and dicotyledonous weed plants and crop plants are sown in wood-fiber pots in sandy loam, covered with soil and grown in a greenhouse under controlled growth conditions. 2 to 3 weeks after sowing, the test plants are sprayed in the single-leaf stage. The compounds according to the invention, formulated in form of wettable powders (WP) or as emulsifiable concentrates (EC), are then sprayed onto the green plant parts as aqueous suspension or emulsion, with the addition of 0.5% of an additive, at an application rate of 600 l of water/ha (converted). After the test plants had been in the greenhouse for ca. 3 weeks under optimum growth conditions, the effect of the preparations is assessed visually in comparison with untreated controls (herbicidal effect in percent (%): 100% effect=plants have died off, 0% effect=as control plants).

Nilaparvata lugens = Nilaparvata lugens spray test; format: in vivo; conditions: application rate 500 g/ha, after 4 days, rice plants
Method: (§1) Solvent: 78.0 parts by weight of acetone • • 1.5 parts by weight of dimethylformamide
(§2) Emulsifier: alkylarylpolyglycol ether
(§3) To produce a suitable preparation of active compound, 1 part by weight of active compound is mixed with the stated amount of solvents and is diluted with water, containing an emulsifier concentration of 1000 ppm, to the desired concentration. Further test concentrations are prepared by dilution with emulsifier containing water.
Rice plants (Oryza sativa) are sprayed with a preparation of the active ingredient of the desired concentration and the plants are infested with the brown planthopper (Nilaparvata lugens).
After 4 days mortality in % is determined. 100% means all planthoppers have been killed and 0% means none of the planthoppers have been killed.

Amaranthus retroflexus [2] = experiment: Herbicidal effect pre-emergence; format: in vivo; conditions: 320 g/ha, visual grading after ca. 3 weeks vs untreated controls
Outline: (§4)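 Pre-emergence: WP or EC formulations applied as aqueous suspension/emulsion with 0.5% additive at 600 l water/ha onto covering soil of freshly sown pots in sandy loam. Greenhouse under optimum conditions; visual damage scored after ca. 3 weeks versus untreated controls (100% = plants died, 0% = as control).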

Viola tricolor [3] = experiment: Herbicidal effect pre-emergence; format: in vivo; conditions: 320 g/ha, visual grading after ca. 3 weeks vs untreated controls
Outline: as §4

Setaria viridis [4] = experiment: Herbicidal effect pre-emergence; format: in vivo; conditions: 320 g/ha, visual grading after ca. 3 weeks vs untreated controls
Outline: as §4

Amaranthus retroflexus [5] = experiment: Herbicidal effect post-emergence; format: in vivo; conditions: 320 g/ha
Outline: (§5)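 Greenhouse plants in sandy loam sprayed post-emergence at single-leaf stage (2-3 weeks after sowing) with WP or EC formulations plus 0.5% additive at 600 l water/ha. Damage scored visually after ca. 3 weeks versus untreated controls, 0% (as control) to 100% (dead).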

Viola tricolor [6] = experiment: Herbicidal effect post-emergence; format: in vivo; conditions: 320 g/ha
Outline: as §5

Stellaria media [7] = experiment: Herbicidal effect post-emergence; format: in vivo; conditions: 320 g/ha, visual grading after ca. 3 weeks (Table 7)
Outline: as §5

[8] = system: Polygonum convolvulus (=Fallopia convolvulus); experiment: Herbicidal effect post-emergence; format: in vivo; conditions: 320 g/ha, visual grading after ca. 3 weeks (Table 7)
Outline: as §5

Setaria viridis [9] = experiment: Herbicidal effect post-emergence; format: in vivo; conditions: 320 g/ha
Outline: as §5

Pharbitis purpurea = experiment: Herbicidal effect post-emergence; format: in vivo; conditions: 320 g/ha, visual grading after ca. 3 weeks (Table 7)
Outline: as §5

MATIN [10] = experiment: Herbicidal effect pre-emergence; format: in vivo, Matricaria inodora; conditions: 320 g/ha, visual grading after ca. 3 weeks vs untreated controls
From the text: Seeds of mono- and dicotyledonous weed plants and crop plants are sown in wood-fiber pots in sandy loam and covered with soil. The compounds according to the invention, formulated in the form of wettable powders (WP) or as emulsifiable concentrates (EC), are then applied to the surface of the covering soil as aqueous suspension or emulsion, with the addition of 0.5% of an additive, at an application rate of 600 l of water/ha (converted).
Following treatment, the pots are placed in a greenhouse and kept under optimum growth conditions for the test plants. The visual grading of the damage to the test plants is carried out after ca. 3 weeks in comparison to untreated controls (herbicidal effect in percent (%): 100% effect=plants have died off, 0% effect=as control plants).

Stellaria media [11] = experiment: Herbicidal effect pre-emergence; format: in vivo; conditions: 320 g/ha, visual grading after ca. 3 weeks vs untreated controls
Outline: as §4

Alopecurus myosuroides = experiment: Herbicidal effect pre-emergence; format: in vivo; conditions: 320 g/ha, visual grading after ca. 3 weeks vs untreated controls
Outline: as §4

Abutilon theophrasti = experiment: Herbicidal effect post-emergence; format: in vivo; conditions: 320 g/ha, visual grading after ca. 3 weeks (Table 8)
Outline: as §5

Phaedon cochleariae = Phaedon cochleariae spray test; format: in vivo; conditions: application rate 500 g/ha, after 7 days, Chinese cabbage leaf disks
Method: as §1, §2, §3
Chinese cabbage (Brassica pekinensis) leaf disks are sprayed with a preparation of the active ingredient of the desired concentration. Once dry, the leaf disks are infested with mustard beetle larvae (Phaedon cochleariae).
After 7 days mortality in % is determined. 100% means all beetle larvae have been killed and 0% means none of the beetle larvae have been killed.

Nezara viridula = Nezara viridula spray test; format: in vivo; conditions: application rate 500 g/ha, after 4 days, barley plants
Method: as §1, §2
as §3, with “solvent,” for “solvents”, “and the concentrate” for “and”
Barley plants (Hordeum vulgare) infested with larvae of the southern green stink bug (Nezara viridula) are sprayed with a test solution containing the desired concentration of the active ingredient.
After 4 days mortality in % is determined. 100% means all the stink bugs have been killed; 0% means none of the stink bugs have been killed.

[12] = visual grading after ca. 3 weeks (Table 7)
[13] = visual grading after ca. 3 weeks (Table 8)
[14] = visual grading after ca. 3 weeks (Table 9)

Row | Structure (SMILES) | mortality (Nilaparvata lugens) | herbicidal effect AMARE (Amaranthus retroflexus [2]) | herbicidal effect VIOTR (Viola tricolor [3]) | herbicidal effect SETVI (Setaria viridis [4]) | herbicidal effect MATIN (MATIN [10]) | herbicidal effect STEME (Stellaria media [11]) | herbicidal effect ALOMY (Alopecurus myosuroides) | other results
1 | Nc1nsc2c1CC(CO)N(CC1CCCCC1)C2=O (stereo not drawn) [Example I-007] | 100% | 100% | 90% | 80% |  |  |  | herbicidal effect MATIN (MATIN [1]): 100%; herbicidal effect AMARE (Amaranthus retroflexus [5]; [12]): 100%; herbicidal effect VIOTR (Viola tricolor [6]; [12]): 100%; herbicidal effect STEME (Stellaria media [7]): 100%; herbicidal effect POLCO [8]: 100%; herbicidal effect SETVI (Setaria viridis [9]; [12]): 100%; herbicidal effect PHBPU (Pharbitis purpurea): 100%
2 | CC(=O)Nc1nsc2c(=O)n(CC3CCCCC3)cc(Cl)c12 [Example I-084] |  | 100% | 100% | 100% | 100% | 100% | 100% | herbicidal effect AMARE (Amaranthus retroflexus [5]; [13]): 100%; herbicidal effect VIOTR (Viola tricolor [6]; [13]): 100%; herbicidal effect ABUTH (Abutilon theophrasti): 100%; herbicidal effect SETVI (Setaria viridis [9]; [13]): 100%; mortality (Phaedon cochleariae): 83%
3 | COCC(=O)Nc1nsc2c(=O)n(CC3CCCCC3)cc(Br)c12 [Example I-087] | 100% | 100% | 100% | 100% | 90% | 100% | 100% | mortality (Nezara viridula): 90%; herbicidal effect AMARE (Amaranthus retroflexus [5]; [14]): 100%; herbicidal effect VIOTR (Viola tricolor [6]; [14]): 100%; herbicidal effect SETVI (Setaria viridis [9]; [14]): 100%
